Experimental data taken from a melting point compilation (Tetko et al.; mined from patent text by program, amines drawn as free bases though some values may be those of a salt).

Row | SMILES | melting point [°C]
1 | CCCCCCCCCCCCCCCCc1cc2c(s1)-n1c(C)nnc1CN=C2c1ccccc1Cl | 58 to 60
2 | Cn1nc(-c2cccc(-n3ncc4cc(C(C)(C)C)cc(F)c4c3=O)c2CO)cc(Nc2cnc(C(F)(F)F)cn2)c1=O | 250 to 254
3 | O=[N+]([O-])c1cnc2cccnc2c1NCCOc1ccccc1 | 107 to 108
4 | Cc1nc2ccc(F)cc2c2c1ncn2C | 184 to 186
5 | CCN1CCN(C(=O)c2ccc(-c3[nH]nc4c3C(=O)c3c(NC(=O)NN5CCOCC5)cccc3-4)s2)CC1 | 186 to 188
6 | OCC1COC(c2c(F)cccc2F)=N1 (stereo not drawn) | 82
7 | COc1ccc(C2(C#Cc3cccc(C#N)c3)CCC(=O)CC2)cc1OC1CCCC1 | 124 to 126
8 | c1ccc(-c2n[nH]cc2-c2ccnc(-c3ccc(OCCn4ccnc4)cc3)c2)nc1 | 108
9 | COC(=O)C1CCC2C3CCC4CC(OC(C)=O)C(OC)CC4(C)C3C(NC3CCCCC3)CC12C (stereo not drawn) | 87 to 89
10 | Cc1noc(-c2ccc(-c3cscn3)cc2)c1-c1ccc(S(N)(=O)=O)cc1 | 236
11 | O=C(NO)Oc1ccccc1 | 99.5 to 101
12 | Nc1ccc(C2=Nn3ccnc3Cc3cc4c(cc32)OCO4)cc1 | 264 to 265
13 | NC(=O)c1coc(-c2ccc(Oc3ccc(F)cc3)cc2)n1 | 164
14 | O=C1CCCC2=C1C(c1cccc([N+](=O)[O-])c1)C=C(C(F)(F)F)N2 (stereo not drawn) | 215 to 216
15 | Cc1cc(C)nc(NC(=O)NS(=O)(=O)c2ccccc2C(F)F)n1 | 190 to 195
16 | Cn1nnnc1CO/N=C(\C(=O)O)c1csc(N)n1 | 185
17 | Cc1cccc(C)c1NCCCN1C(=O)c2ccccc2C1=O | 97 to 98
18 | CN(C)C(=O)C(OCc1ccc(-c2ccc(Cl)cc2)cc1)C(F)(F)F (stereo not drawn) | 103 to 107
19 | CSc1nc(SCc2ccccc2)n[nH]1 | 80 to 82
20 | CN1CCC2(CC1)NC(=O)N(c1ccc(C#N)c(C(F)(F)F)c1)C2=O | 188 to 189

Row | SMILES | melting point [°C]
21 | COc1ccccc1C(=O)c1cccnn1 | 125 to 126
22 | COC(=O)c1nc2n(n1)-c1ccccc1N(c1cccc(C)c1C)C2 | 170 to 172
23 | Cc1cc2cc(P(=O)(O)O)c(=O)[nH]c2cc1C | > 300
24 | COc1ccc(P(=O)(c2ccccc2)c2ccccc2)cc1OC | 154 to 156
25 | CCN(C(=O)c1ccccc1C(=O)c1ccc(Cl)cc1)C(C)(C)CNS(=O)(=O)c1ccc(C)cc1 | 175 to 176
26 | CONC(=O)c1cc(-c2ccc(-c3ccco3)cc2)n(-c2ccc(S(C)(=O)=O)c(F)c2)n1 | 126 to 128
27 | Clc1cccc(Oc2ccc(OCn3cnc(Cl)c3Cl)cc2)n1 | 94 to 98
28 | CSc1nc(Cl)c2sccc2n1 | 115 to 118
29 | Cc1c(C)c(NC(=O)CC(C)(C)C)c2c(c1C)C(O)(c1ccc(C(C)C)cc1)C(C)(C)O2 (stereo not drawn) | 178 to 179
30 | Cc1ccc(S(=O)(=O)Nc2ccccc2CCC(=O)c2cnc3sc(C)c(C)n23)cc1 | 168 to 169
31 | [N-]=[N+]=NCc1nc2ccccc2n1Cc1ccc(Cl)c(Cl)c1 | 78 to 80
32 | CC(C)(C)OC(=O)Nc1ccc(C#Cc2ccccc2F)cc1N | 137 to 139
33 | CCS(=O)CC(=C1NCCCS1)[N+](=O)[O-] (stereo not drawn) | 102 to 104
34 | CCCCCc1nc2c(Nc3ccc(Cl)c(Cl)c3)nc3ccccc3c2[nH]1 | 195 to 200
35 | COc1cc(C=C(C)[N+](=O)[O-])c(OC)c(C)c1C | 76 to 81
36 | C[N+]1([O-])CC(c2ccccn2)C(=O)c2cc(Cl)ccc21 (stereo not drawn) | 135 to 137
37 | CS(=O)(=O)c1ccc(-c2cnn(Cc3ccc4ccccc4n3)c(=O)c2-c2ccc(F)cc2)cc1 | 97 to 100
38 | O=C(O)c1ccc(N(CCOc2cccc3ccccc23)C(=O)C(F)(F)F)cc1 | 167 to 168
39 | Clc1ccccc1/C=C/C1=CCN(Cc2c[nH]c3ncccc23)CC1 | 174 to 176
40 | Cc1cc(Cl)cc2c(=O)oc(-c3cc(OCC(F)(F)F)nn3-c3ncccc3Cl)nc12 | 178 to 180

Row | SMILES | melting point [°C]
41 | COc1ccc2c(c1)cc(-c1nnn(Cc3cccc(OCc4ccc5ccccc5n4)c3)n1)c(=O)n2CCCCl | 150 to 152
42 | COc1cc(C(OC(C)=O)C(COC(C)=O)[N+](=O)[O-])cc(OC)c1OC (stereo not drawn) | 107 to 109
43 | Cc1sc(CCc2ccc(C=CC=O)cc2)nc1-c1ccccc1 | 94 to 95
44 | CCOCc1nc2c(N)nc3cc(NS(=O)(=O)CC)ccc3c2n1CC(C)(C)O | 124 to 127
45 | Oc1ccc(C=Cc2ccncc2)cc1 | 272 to 275
46 | COc1ccc(-n2c(-c3ccccc3)cc3c2CCCC3)cc1 | 132 to 133
47 | Cn1cnc2c1c1n[nH]c(=O)n1c(=O)n2Cc1ccccc1 | 295
48 | COC(=O)Nc1nc2cc(-c3noc4ccccc34)ccc2[nH]1 | > 300
49 | CC(CC(=O)Nc1cc(Cc2n[nH]c(=O)c3ccccc23)ccc1F)C(=O)O (stereo not drawn) | 140 to 144
50 | C=CCN1C(C(=O)Nc2coc3ccccc3c2=O)C(=O)c2ccccc2S1(=O)=O (stereo not drawn) | 218 to 220
51 | O=C1C(=O)N(CCCN2CCN(C(=O)N(c3ccccc3)c3ccccc3)CC2)c2ccccc21 | 163 to 164
52 | C=C(C)C(=O)Nc1cccc2c(O)cccc12 | 223 to 224
53 | COc1ccc(Cn2c3c(ccc2=O)C(C)NC(SC)=N3)cc1Cl (stereo not drawn) | 184 to 186
54 | COc1cc(OC)c(OC(=O)CS(=O)(=O)Nc2c(C(C)C)cccc2C(C)C)c(OC)c1 | 167 to 170
55 | CC(C)OP(=O)(/C=C/C(CO)Cn1cnc2c(N)ncnc21)OC(C)C (stereo not drawn) | 130
56 | CSc1cc(CBr)cc(SC)c1 | 76 to 77
57 | CON(C)C(=O)CC1CN=C(c2cc3cccc(N(C)S(=O)(=O)c4cccs4)c3[nH]2)S1 (stereo not drawn) | 153 to 154
58 | Oc1cccc(-c2nc(-c3cccnc3)no2)c1 | > 200
59 | C=C[C@@]12CCC[C@@H](C#N)[C@@H]1C(=O)CC2 | 41 to 42
60 | COCOc1cc(Cl)ccc1-c1cc(-c2cccc(C(=O)NCCCn3ccnc3)c2)c(C#N)c(NC(=O)c2ccco2)n1 | 121 to 122

The next lines start with the values.

Row | melting point [°C] | SMILES
61 | > 250 | O=C(Nc1cccc(F)c1)c1ccc(CN2C(=O)C3(COc4cc5c(cc43)CCO5)c3ccccc32)cc1 (stereo not drawn)
62 | 160 to 162 | CCCc1nc(OC)c(NC(=S)N2CCN(c3cccc(O)c3)CC2)cc1C
63 | 216 to 217 | Cc1cc(C2CC2)nc(NC(=O)NS(=O)(=O)c2cccc3c2OS(=O)(=O)C(C)C3)n1 (stereo not drawn)
64 | 124 to 125 | CC1(C2CCCC2)Cc2cc(OCCBr)c(Cl)c(Cl)c2C1=O (stereo not drawn)
65 | 171 to 173 | CCOC(=O)CCNC(=O)Oc1c(C)n(C)ccc1=O
66 | 259 to 261 | N#Cc1ccc2c(c1)S(=O)(=O)NCN2C1CC1
67 | 100 to 102 | c1ccc2c(c1)nc(-c1ccc3c(c1)OCO3)n2CC1CCCCC1
68 | 170 to 171 | CCN1C(=O)Cc2cc3ccccc3cc2S1(=O)=O
69 | 145 to 155 | CCc1cccc(NC(=O)NC2CC(C3CCCCC3)c3ccccc3N(CC(=O)NC(C)(C)C)C2=O)c1 (stereo not drawn)
70 | 91 to 92 | CCON=C(CC)C1=C(O)CC(c2ccc(Sc3ncc(C(F)(F)F)cc3F)cc2)CC1=O (stereo not drawn)
71 | 91 | COC(=O)c1cc(C)c(OCCNC(=O)C2Cc3ccccc3N2S(=O)(=O)c2ccc(-c3ccc(F)cc3)cc2)c(C)c1 (stereo not drawn)
72 | 230 | CCCN1c2ccc3c(c2CC1C(N)=O)CC(N)CC3 (single isomer, unassigned; (+))
73 | 64 to 66 | O=C1CCCc2ccc3ccccc3c21
74 | 33 to 34 | CCOC(=O)C(=NNc1ccccc1CC)C(=O)OCC
75 | 211 | O=C1CCCc2nc(N3CCN(Cc4ccccc4)CC3)ncc2N1
76 | 132 to 134 | O=C(CCl)OCN1C(=O)CN(CCN2CC(=O)N(COC(=O)CCl)C(=O)C2)CC1=O
77 | 90 to 93 | COC(=O)C[C@H]1C(=O)OCN1C(=O)OCc1ccccc1
78 | 255 to 260 | O=C(O)c1cncc(-c2cnc3c(c2)N(Cc2cc(F)ccc2F)CCN3)c1
79 | 143 to 144 | CNC(=O)c1cnn(-c2ccc(Cl)cc2Cl)c1C(F)(F)F

Row | melting point [°C] | SMILES
80 | 76 to 78 | COc1cc(CCC(=O)CC(=O)c2ccccc2)ccc1O
81 | 137 to 138 | COc1ccc2c(c1)C(C(=O)N(Cc1ccc(C#N)cc1)c1ccc(C(C)C)cc1)CCC2 (stereo not drawn)
82 | 245 | CS(=O)(=O)N1CCOc2ccc(C3=NNC(=O)CC3)cc21
83 | 144 to 152 | CCOC(=O)Nc1cc(C(C)=O)c2c(c1)N(NC(C)c1ccccc1)c1ccccc1CC2 (stereo not drawn)
84 | 78 to 84 | CCCC1CCCCCc2c1oc(=O)c(C(c1ccccc1)C1CC1)c2O (stereo not drawn)
85 | 57 to 59 | COc1cc(C(C)=O)ccc1OC/C=C/CN1CCC(c2noc3cc(F)ccc23)CC1
86 | 50 | CCOC(=O)C(C)(C)Oc1cccc(Cc2ccc(C(F)(F)F)cc2)c1
87 | 65 | CC(=O)CS(=O)(=O)c1cccc2ccccc12
88 | 157 to 159 | Cc1ccc(Cl)cc1N1CN(C)CN(C)C1=S
89 | 195 to 196 | COC(=O)c1cnc(N)c([N+](=O)[O-])c1
90 | 184 | CC(C)N(CCCC1CCN(CCNC(=O)N2c3ccccc3C(=O)Nc3cccnc32)CC1)C(C)C
91 | 210 to 213 | CCNC(=O)CCC(=O)c1ccc(NS(C)(=O)=O)cc1
92 | 118 to 119 | Cc1cc(OC(=O)c2ccccc2)ccc1OCc1ccccc1
93 | 76 to 78 | CCN(CC)CCNC(=O)c1cc(Cl)c(N)cc1OCCC(C)OC (stereo not drawn)
94 | 228 to 230 | Cc1c(C(=O)Nc2ccc(N3CCN(CCO)CC3)c(C#N)c2)cnn1C
95 | 55 to 61 | O=C(N[C@@H](CO)C(=O)NCCCCOC1CCCCC1)c1ccc(C(=O)c2cccnc2)cc1
96 | 190 to 191 | COc1cc(C(=O)O)ccc1Cc1cn(C)c2ccc(C(=O)NCCC(C)C)cc12
97 | 204 to 205 | NC(=O)c1ccc(Nc2nc(N)nc(Cc3c(Cl)ccc4[nH]ccc34)n2)cc1
98 | 161 | CCn1c(C(F)(F)F)nn(C2=CCC(F)(C(N)=S)C(N)=C2)c1=O (stereo not drawn)
